{
  "source": "patent US20200363414A1",
  "about": "“Neoantigen Identification for T-Cell Therapy” (Gritstone Oncology, Inc., priority 2018, published 2020)",
  "note": "Where no end group is shown, it is not given here.",
  "data": [
    {"system": "neoantigen-reactive T-cells (patient PBMCs)", "assay": "IFN-gamma ELISpot of in vitro expanded (IVS) NSCLC patient PBMCs", "type": "cell-based, human", "conditions": "IFN-gamma ELISpot after 14 day IVS culture of NSCLC patient PBMCs", "description": "To focus the analysis on likely CD8 responses, the prioritized peptides were synthesized as 8-11 mer minimal epitopes (Methods), and then peripheral blood mononuclear cells (PBMCs) were cultured with the synthesized peptides in short in vitro stimulation (IVS) cultures to expand neoantigen-reactive T-cells (Supplementary Table 3). After two weeks the presence of antigen-specific T-cells was assessed using IFN-gamma ELISpot against the prioritized neoepitopes. In seven patients for whom sufficient PBMCs were available, separate experiments were also performed to fully or partially deconvolve the specific antigens recognized.\nFor each patient, predicted neoantigens were combined into 2 pools of 10 peptides each according to model ranking and any sequence homologies (homologous peptides were separated into different pools). Then, for each patient, the in vitro expanded PBMCs for the patient were stimulated with the 2 patient-specific neoantigen peptide pools in IFN-gamma ELISpot. Data in FIG. 15A are presented as spot forming units (SFU) per 105 plated cells with background (corresponding DMSO negative controls) subtracted.\nCells were seeded at 2×10^6 cells/well and fed every 2-3 days by replacing 2/3 of the culture media.\nDetection of IFNγ-producing T-cells was performed by ELISpot assay^142. Briefly, PBMCs (ex vivo or post in vitro expansion) were harvested, washed in serum free RPMI (VWR International) and cultured in the presence of controls or cognate peptides in OpTmizer T-cell Expansion Basal Medium (ex vivo) or in ImmunoCult™-XF T-cell Expansion Medium (expanded cultures) in ELISpot Multiscreen plates (EMD Millipore) coated with anti-human IFNγ capture antibody (Mabtech, Cincinatti, Ohio, USA). Following 18 h incubation in a 5% CO2, 37° C., humidified incubator, cells were removed from the plate and membrane-bound IFNγ was detected using anti-human IFNγ detection antibody (Mabtech), Vectastain Avidin peroxidase complex (Vector Labs, Burlingame, Calif., USA) and AEC Substrate (BD Biosciences, San Jose, Calif., USA). […] Data are presented as spot forming units (SFU) per plated number of cells.", "values": [
      {"sequence": "DTVEYPYTSF", "T-cell recognition of individual neoantigen peptide": "peptide-specific T-cell response was deconvolved"},
      {"sequence": "GTKKDVDVLK", "T-cell recognition of individual neoantigen peptide": "recognized by CD8 T-cells"},
      {"sequence": "EVADAATLTM", "T-cell recognition of individual neoantigen peptide": "peptide-specific T-cell response was deconvolved"},
      {"sequence": "DENITTIQF", "T-cell recognition of individual neoantigen peptide": "peptide-specific T-cell response was deconvolved"},
      {"sequence": "QDVSVQVER", "T-cell recognition of individual neoantigen peptide": "peptide-specific T-cell response was deconvolved"}
    ]}
  ]
}
